Reference: patent publication US20170247458A1, “Safety for Treating Cancers with a Glycosylated Chimeric Antibody to EGFR” (Sorrento Therapeutics, Inc., priority 2016, published 2017)

Key:
[1] = human, in vivo
[2] = tested on: EGFR positive, metastatic colorectal cancer; assay: Phase 2/3 study, radiologic response and survival
[3] = Phase 2/3 study, safety evaluation and adverse events; conditions: Table 7

CCc1c2c(nc3ccc(OC(=O)N4CCC(N5CCCCC5)CC4)cc13)-c1cc3c(c(=O)n1C2)COC(=O)[C@]3(O)CC [Irinotecan monotherapy, irinotecan]
At least one ADR, number of patients [1]: 126
At least one ADR, share of patients [1]: 74.1%
At least one AE which lead to stop drug treatment, number of patients [1]: 27
At least one AE which lead to stop drug treatment, share of patients [1]: 15.9%
At least one AE, number of patients [1]: 148
At least one AE, share of patients [1]: 87.1%
At least one Level □ or above ADR, number of patients [1]: 10
At least one Level □ or above ADR, share of patients [1]: 5.9%
At least one Level □ or above AE, number of patients [1]: 12
At least one Level □ or above AE, share of patients [1]: 7.1%
At least one Level □ or above important AE, number of patients [1]: 11
At least one Level □ or above important AE, share of patients [1]: 6.5%
At least one SAE, number of patients [1]: 8
At least one SAE, share of patients [1]: 4.7%
At least one important AE, number of patients [1]: 120
At least one important AE, share of patients [1]: 70.6%
At least one test drug-related SAE, number of patients [1]: 1
At least one test drug-related SAE, share of patients [1]: 0.6%
Grade 3-4 Abdominal pain, number [1]: 0
Grade 3-4 Acne-like rash, number [1]: 0
Grade 3-4 Anemia, number [1]: 3
Grade 3-4 Anemia, value in parentheses [1]: (1.8)
Grade 3-4 Asthenia, number [1]: 6
Grade 3-4 Asthenia, value in parentheses [1]: (3.7)
Grade 3-4 Diarrhea, number [1]: 12
Grade 3-4 Diarrhea, value in parentheses [1]: (7.3)
Grade 3-4 Fever, number [1]: 1
Grade 3-4 Fever, value in parentheses [1]: (0.9)
Grade 3-4 Nausea and vomiting, number [1]: 16
Grade 3-4 Nausea and vomiting, value in parentheses [1]: (9.8)
Grade 3-4 Neutropenia, number [1]: 14
Grade 3-4 Neutropenia, value in parentheses [1]: (8.5)
Grade 3-4 Stomatitis, number [1]: 0
Grade 3-4 Thrombocytopenia, number [1]: 0
Grade 3-4 adverse events, Any, number [1]: 57
Complete response, number of patients ([2]; Ph2/3 trial): 1
Complete response, rate in parentheses ([2]; Ph2/3 trial): 0.6
Partial response, number of patients ([2]; Ph2/3 trial): 20
Partial response, rate in parentheses ([2]; Ph2/3 trial): 12.2
Progressive disease, number of patients ([2]; Ph2/3 trial): 44
Progressive disease, rate in parentheses ([2]; Ph2/3 trial): 26.8
Stable disease, number of patients ([2]; Ph2/3 trial): 86
Stable disease, rate in parentheses ([2]; Ph2/3 trial): 52.4
Time to disease progression ([2]; Ph2/3 trial): 4.1 months
Unable to evaluate, number of patients ([2]; Ph2/3 trial): 13
Unable to evaluate, rate in parentheses ([2]; Ph2/3 trial): 7.9
Overall response rate, number of patients ([2]; sum of CR and PR): 21
Overall response rate, rate in parentheses ([2]; sum of CR and PR, interval in brackets not copied): 12.8
Disease control rate, number of patients ([2]; sum of CR, PR and SD): 107
Disease control rate, rate in parentheses ([2]; sum of CR, PR and SD, interval in brackets not copied): 65.2
Test drug-related death AE, number of patients [3]: 0
